Data reported in ChEMBL document CHEMBL4118135, “Optimized allosteric inhibition of engineered protein tyrosine phosphatases with an expanded palette of biarsenical small molecules” (Bioorg Med Chem, 2018).
Substitutions are numbered along the chain they refer to. Active and inactive are the calls of the source. No cut-off for these calls is given here.

Experiments:
[1] = target: T1, Tyrosine-protein phosphatase non-receptor type 1 (Homo sapiens) (UniProt P18031); assay: Inhibition of His6-tagged human wild-type PTP1B catalytic domain overexpressed in Escherichia coli BL21(DE3) cells at 100 uM using pNPP as substrate incubated for 90 mins by quenched phosphatase activity assay
T1 sequence (whole entry): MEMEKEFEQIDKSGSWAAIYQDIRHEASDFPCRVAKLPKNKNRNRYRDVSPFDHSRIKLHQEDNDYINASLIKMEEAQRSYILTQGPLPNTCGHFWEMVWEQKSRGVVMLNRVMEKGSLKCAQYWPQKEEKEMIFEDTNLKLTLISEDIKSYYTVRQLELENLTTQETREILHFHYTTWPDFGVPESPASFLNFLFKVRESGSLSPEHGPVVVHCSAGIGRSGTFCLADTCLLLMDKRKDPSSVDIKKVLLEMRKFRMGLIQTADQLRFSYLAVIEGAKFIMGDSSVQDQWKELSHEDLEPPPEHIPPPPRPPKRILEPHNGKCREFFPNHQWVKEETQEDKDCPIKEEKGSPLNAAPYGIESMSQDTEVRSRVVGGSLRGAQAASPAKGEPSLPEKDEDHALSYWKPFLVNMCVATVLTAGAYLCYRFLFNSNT

[2] = target: T1, Tyrosine-protein phosphatase non-receptor type 1 (Homo sapiens); assay: Inhibition of His6-tagged human wild-type PTP1B catalytic domain overexpressed in Escherichia coli crude cell lysate using pNPP as substrate incubated for 90 mins by quenched phosphatase activity assay
[3] = target: T1, Tyrosine-protein phosphatase non-receptor type 1 (Homo sapiens); assay: Binding affinity to His6-tagged human wild-type PTP1B catalytic domain overexpressed in Escherichia coli BL21(DE3) cells at 100 uM using pNPP as substrate after 90 mins by SDS-PAGE analysis
[4] = tested on: T2, Tyrosine-protein phosphatase non-receptor type 1 (Homo sapiens), P18031 [P87C,A122C]; assay: Inhibition of allosterically sensitized His6-tagged human PTP1B catalytic domain P87C/A122C mutant at 500 nM using DADEpYLIPQQG as substrate incubated for 90 mins by continuous phosphatase activity assay
T2 sequence (whole entry): T1 sequence (whole entry) with P87C, A122C

[5] = tested on: T2, Tyrosine-protein phosphatase non-receptor type 1 (Homo sapiens), P18031 [P87C,A122C]; assay: Inhibition of allosterically sensitized His6-tagged human PTP1B catalytic domain P87C/A122C mutant at 2000 nM using pNPP as substrate incubated for =
[6] = target: T3, Tyrosine-protein phosphatase non-receptor type 7 (Homo sapiens) (UniProt P35236); assay: Inhibition of His6-tagged human wild-type HePTP catalytic domain at 1 uM using pNPP as substrate incubated for 90 mins by quenched phosphatase activity assay
T3 sequence (whole entry): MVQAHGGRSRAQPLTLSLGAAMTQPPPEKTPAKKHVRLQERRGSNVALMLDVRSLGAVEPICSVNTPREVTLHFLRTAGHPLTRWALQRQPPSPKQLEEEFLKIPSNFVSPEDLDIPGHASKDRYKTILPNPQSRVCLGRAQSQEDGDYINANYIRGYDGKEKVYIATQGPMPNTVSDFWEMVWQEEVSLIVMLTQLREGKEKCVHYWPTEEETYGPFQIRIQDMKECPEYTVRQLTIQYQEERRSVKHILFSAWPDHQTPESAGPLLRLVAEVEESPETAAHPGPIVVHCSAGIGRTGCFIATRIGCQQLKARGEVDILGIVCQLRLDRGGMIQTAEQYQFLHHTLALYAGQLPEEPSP

[7] = target: T3, Tyrosine-protein phosphatase non-receptor type 7 (Homo sapiens); assay: Inhibition of His6-tagged human wild-type HePTP catalytic domain overexpressed in Escherichia coli crude cell lysate at 2000 nM using pNPP as substrate incubated for 90 mins by quenched phosphatase activity assay
[8] = tested on: T4, Tyrosine-protein phosphatase non-receptor type 7 (Homo sapiens), P35236 [P171C,V205C]; assay: Inhibition of allosterically sensitized mutant form of His6-tagged human HePTP catalytic domain using pNPP as substrate incubated for 90 mins by quenched phosphatase activity assay
T4 sequence (whole entry): T3 sequence (whole entry) with P171C, V205C

[9] = target: T5, Tyrosine-protein phosphatase non-receptor type 11 (Homo sapiens) (UniProt Q06124); assay: Inhibition of allosterically sensitized mutant form of His6-tagged human SHP2 catalytic domain using pNPP as substrate after 90 mins by quenched phosphatase activity assay
T5 sequence (whole entry): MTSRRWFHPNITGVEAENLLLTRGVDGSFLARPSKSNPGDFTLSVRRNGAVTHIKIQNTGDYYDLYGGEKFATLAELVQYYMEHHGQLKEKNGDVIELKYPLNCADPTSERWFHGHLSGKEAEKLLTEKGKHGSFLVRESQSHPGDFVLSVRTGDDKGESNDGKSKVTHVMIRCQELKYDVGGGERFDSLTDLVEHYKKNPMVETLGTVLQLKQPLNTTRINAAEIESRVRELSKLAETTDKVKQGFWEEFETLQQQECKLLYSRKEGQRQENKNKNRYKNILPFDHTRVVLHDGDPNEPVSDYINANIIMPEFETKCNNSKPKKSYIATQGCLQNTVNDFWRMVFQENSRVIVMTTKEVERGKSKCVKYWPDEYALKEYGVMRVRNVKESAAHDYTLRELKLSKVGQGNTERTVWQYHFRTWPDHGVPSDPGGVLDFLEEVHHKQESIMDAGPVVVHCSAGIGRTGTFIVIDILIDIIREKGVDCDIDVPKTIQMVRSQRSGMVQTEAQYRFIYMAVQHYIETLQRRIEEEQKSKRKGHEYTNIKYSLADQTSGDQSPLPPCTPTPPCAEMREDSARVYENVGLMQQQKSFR

SMILES: CC1(C)C(/C=C/C=C2/N(CCCCS(=O)(=O)O)c3ccc([As]4SCCS4)cc3C2(C)C)=[N+](CCCCS(=O)(=O)O)c2ccc([As]3SCCS3)cc21
- inhibition [1]: inactive
- inhibition [2]: inactive
- Activity [3]: inactive
- inhibition [4]: Active
- inhibition [5]: 50%

SMILES: O=C(O)c1ccccc1-c1c2ccc(=O)c([As]3SCCS3)c-2oc2c([As]3SCCS3)c(O)ccc12
- inhibition [6]: inactive
- inhibition [7]: inactive
- inhibition [8]: Dose-dependent effect
- inhibition [9]: Dose-dependent effect
